Results published in article PMC6356855, “Two New Succinimide Derivatives Cladosporitins A and B from the Mangrove-derived Fungus Cladosporium sp. HNWSW-1” (Marine Drugs, 2018).

What was measured:
Hela cell line = test: MTT cytotoxicity assay, Hela; assay type: cell-based; details: MTT method, mean ± SD, n = 3
Protocol: (§1) The MTT method optimized by Mosmann et al. was performed in vitro to test the cytotoxic activity of compounds 1–6. Adriamycin was used as a positive control and the medium without the test compound was used as a negative control in the bioassay.

K562 cell line = test: MTT cytotoxicity assay, K562; assay type: cell-based; details: MTT method, mean ± SD, n = 3
Protocol: as §1

SGC-7901 cell line = test: MTT cytotoxicity assay, SGC-7901; assay type: cell-based; details: MTT method, mean ± SD, n = 3
Protocol: as §1

BEL-7042 cell line = test: MTT cytotoxicity assay, BEL-7042; assay type: cell-based; details: MTT method, mean ± SD, n = 3
Protocol: as §1

α-glycosidase = α-glycosidase inhibitory activity assay; assay type: biochemical; details: α-glycosidase inhibition in vitro; mean ± SD, n = 3
Protocol: The method optimized by Jong et al. was performed in vitro to test the α-glucosidase inhibitory activity of compounds 1–5. Acarbose was used as positive control.

[1] = Homo sapiens, K562, cytotoxicity
[2] = Homo sapiens, SGC-7901, cytotoxicity

| Compound | IC50 (Hela cell line) | IC50 (K562 cell line; cytotoxicity) | IC50 (SGC-7901 cell line; cytotoxicity) | IC50 (BEL-7042 cell line) | IC50 (α-glycosidase) | IC50 (Hela cell line; Homo sapiens) | IC50 (K562 cell line; [1]) | IC50 (SGC-7901 cell line; [2]) |
| --- | --- | --- | --- | --- | --- | --- | --- | --- |
| 1,3,6-trihydroxy-7-(1-hydroxyethyl) anthracene-9,10-dione [Compound 5] | > 50 µM | > 50 µM | > 50 µM | > 50 µM | 49.3 ± 10.6 µM |  |  |  |
| C[C@H]1O[C@H](O[C@H]2[C@H](O)[C@@H](O)[C@@H](O[C@H]3[C@H](O)[C@@H](O)C(O)O[C@@H]3CO)O[C@@H]2CO)[C@H](O)[C@@H](O)[C@@H]1N[C@H]1C=C(CO)[C@@H](O)[C@H](O)[C@H]1O (stereo partly drawn) [Acarbose, reference compound] |  |  |  |  | 275.7 ± 2.7 µM |  |  |  |
| COc1cccc2c1C(=O)c1c(O)c3c(c(O)c1C2=O)C[C@@](O)(C(=O)CO)C[C@@H]3O[C@H]1C[C@H](N)[C@H](O)[C@H](C)O1 [Adriamycin, reference compound] |  |  |  | 11.9 ± 0.37 µM |  | 11.5 ± 0.18 µM | 14.2 ± 0.66 µM | 6.66 ± 0.2 µM |
| CCC(C)C=C(C)C1C(C)=CC2(C)CC(C)CCC2C1C(=O)C1C(=O)NC(=O)C1Cc1ccc(O)cc1 (stereo not drawn) [Compound 1, cladosporitin A] |  |  |  | > 50 µM | > 500 µM | > 50 µM | > 50 µM | > 50 µM |
| CCC(C)C=C(C)C1C(C)=CC2(C)CC(C)CCC2C1C(=O)C1C(=O)NC(=O)C1Cc1ccc(O)cc1 (stereo not drawn) [Compound 2, cladosporitin B] | > 50 µM | 25.6 ± 0.47 µM | 41.7 ± 0.71 µM | 29.4 ± 0.35 µM | > 500 µM |  |  |  |
| C/C=C/c1cc(=O)c2c(C)cc(O)cc2o1 [Compound 3, clapone] |  |  |  | > 50 µM | > 500 µM | > 50 µM | > 50 µM | > 50 µM |
| CCC(C)/C=C(\C)[C@H]1C(C)=C[C@@]2(C)C[C@@H](C)CC[C@@H]2[C@H]1C(=O)C1=C/C(=C/c2ccc(O)cc2)NC1=O (stereo partly drawn) [Compound 4, talaroconvolutin A] |  |  |  | 26.7 ± 1.1 µM | 78.2 ± 2.1 µM | 14.9 ± 0.21 µM | > 50 µM | > 50 µM |
